Results from article PMC8700061, “Fragment-Sized and Bidentate (Immuno)Proteasome Inhibitors Derived from Cysteine and Threonine Targeting Warheads” (Cells, 2021).
Read-outs that look alike come from different tables or passages of the source.

Experiments:
Assay type in all cases: biochemical
hMAO-A = biological target: T1, hMAO-A (Homo sapiens, UniProt P21397); experiment: Monoamine oxidase assay, hMAO-A; details: 30 min pre-incubation, read-out: Residual activity [%] ± SD, hMAO-A
T1 construct: purchased Sigma Aldrich; host or cells: BTI-TN-5B1-4 insect cells
T1 sequence (P21397 1-527): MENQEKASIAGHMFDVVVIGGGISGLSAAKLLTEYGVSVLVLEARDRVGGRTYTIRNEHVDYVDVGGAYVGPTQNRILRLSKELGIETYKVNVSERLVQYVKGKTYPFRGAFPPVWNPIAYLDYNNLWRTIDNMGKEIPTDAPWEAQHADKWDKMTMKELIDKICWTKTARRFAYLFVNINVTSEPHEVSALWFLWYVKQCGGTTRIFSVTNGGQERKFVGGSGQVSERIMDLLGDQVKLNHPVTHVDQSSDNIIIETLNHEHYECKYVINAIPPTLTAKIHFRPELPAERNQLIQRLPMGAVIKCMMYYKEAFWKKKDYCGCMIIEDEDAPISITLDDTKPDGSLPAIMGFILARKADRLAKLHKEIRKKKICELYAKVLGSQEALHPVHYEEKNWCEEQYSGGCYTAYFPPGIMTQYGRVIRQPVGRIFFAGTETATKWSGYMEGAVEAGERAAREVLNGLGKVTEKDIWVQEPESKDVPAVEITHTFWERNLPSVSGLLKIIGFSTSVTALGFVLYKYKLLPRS
Procedure: The effects of the test compounds on hMAO were investigated using fluorimetric assay. Recombinant hMAO-A and hMAO-B, expressed in BTI-TN-5B1-4 insect cells, horseradish peroxidase type II and p-tyramine hydrochloride were purchased from Sigma Aldrich. Amplex Red was synthesized as previously described.
Briefly, 50 mM sodium phosphate buffer (pH = 7.4, 0.05 vol.% Triton X-114) containing the compounds or the reference inhibitors and hMAO were incubated at 37 °C for 30 min. The reaction was started by adding Amplex Red (final concentration, 250 µM), horseradish peroxidase (final activity, 1 U/mL), and p-tyramine (final concentration, 1 mM). The increase in fluorescence (λex = 530 nm, λem = 590 nm) was monitored for 30 min at 37 °C. DMSO at a concentration of 1.5% (v/v) was used for the control experiments. For the determination of blank (b), the enzyme was replaced by phosphate-buffered solution. Each measurement was performed in duplicate. Inhibitory potencies were expressed as residual activities (RA), as described under the Cholinesterase assay section.

β5i subunit of human iCP = biological target: T2, β5i subunit of human iCP (Homo sapiens, UniProt P20618+P28062); experiment: Inhibition of β5i activity (RA at 10 µM, IC50, IC50 shift), Suc-LLVY-AMC; details: for Group efficiency (GE): ΔpIC50/ΔNheavy with compound 1 as reference
T2 construct: purchased Boston Biochem, Inc., Cambridge, MA, USA
Procedure: (§1) Residual activity measurements were performed at 10 μM final concentrations in the assay buffer (0.01% SDS, 50 mM Tris-HCl, 0.5 mM EDTA, pH 7.4). Stock solutions of the compounds were prepared in DMSO. To 50 μL of each compound in buffer, 25 μL of 0.8 nM human iCP or human cCP (both from Boston Biochem, Inc., Cambridge, MA, USA) were added. After incubation at 37 °C for 30 min, the reaction was started by adding of 25 μL of 100 μM relevant fluorogenic substrate: acetyl-Nle-Pro-Nle-Asp-AMC (Ac-nLPnLD-AMC, (Bachem, Bubendorf, Switzerland)) for β1, acetyl-Pro-Ala-Leu-7-amino-4-methylcoumarin (Ac-PAL-AMC, (Boston Biochem, Inc., Cambridge, MA, USA)) for β1i, t-butyloxycarbonyl-Leu-Arg-Arg-7-amino-4-methylcoumarin (Boc-LRR-AMC, (Bachem, Bubendorf, Switzerland)) for β2 and β2i, succinyl-Leu-Leu-Val-Tyr-7-amino-4-methylcoumarin (Suc-LLVY-AMC) (Bachem, Bubendorf, Switzerland) for β5 and β5i. Reaction progress was recorded on BioTek Synergy HT microplate reader by monitoring fluorescence at 460 nm (λex = 360 nm) for 90 min at 37 °C. The initial linear ranges were used to calculate velocity and determine residual activity. In the case of evaluation of β1, βi, β2, and β2i activities, the assay buffer was modified by replacing SDS with the proteasomal activator PA28α (Boston Biochem, Inc., Cambridge, MA, USA).
Final assay mixtures contained 0.2 nM human iCP or 0.2 nM human cCP in assay buffer (0.01% SDS (or PA28α in cases of β1, β1i subunits), 50 mM Tris-HCl, 0.5 mM EDTA, pH 7.4). Inhibitors were dissolved in DMSO and added to the black 96-well plates for at least eight different concentrations (the final concentration of DMSO was not more than 1%). […] Fluorescence was monitored at 460 nm (λex = 360 nm) for 90 min at 37 °C. The progress of the reactions was recorded and the initial linear ranges were used to calculate the velocity. IC50 values were calculated using GraphPadPrism (GraphPad Software, San Diego, CA, USA) and are means from at least three independent determinations.

β1i subunit of human iCP = biological target: T3, β1i subunit of human iCP (Homo sapiens, UniProt P28065+P40306); experiment: Inhibition of β1i activity (RA, IC50), Ac-PAL-AMC; details: PA28α; for IC50: 30 min pre-incubation; for remaining activity at 10 µM: Table 3, read-out: β1i residual activity at 10 µM
T3 construct: purchased Boston Biochem, Inc., Cambridge, MA, USA
Procedure: as §1
Final assay mixtures contained 0.2 nM human iCP or 0.2 nM human cCP in assay buffer (0.01% SDS (or PA28α in cases of β1, β1i subunits), 50 mM Tris-HCl, 0.5 mM EDTA, pH 7.4). Inhibitors were dissolved in DMSO and added to the black 96-well plates for at least eight different concentrations (the final concentration of DMSO was not more than 1%). After 30 min of incubation at 37 °C, the reaction was started by adding the substrate Suc-LLVY-AMC (for β5 and β5i) or Ac-nLPnLD-AMC (for β1) or Ac-PAL-AMC (for β1i). Fluorescence was monitored at 460 nm (λex = 360 nm) for 90 min at 37 °C. The progress of the reactions was recorded and the initial linear ranges were used to calculate the velocity. IC50 values were calculated using GraphPadPrism (GraphPad Software, San Diego, CA, USA) and are means from at least three independent determinations.

β2i subunit of human iCP = biological target: T4, β2i subunit of human iCP (Homo sapiens, UniProt P40306+P49720); experiment: Residual β2i activity, Boc-LRR-AMC; details: 10 µM, PA28α
T4 construct: purchased Boston Biochem, Inc., Cambridge, MA, USA
Procedure: as §1

[1] = 30 min pre-incubation, SDS activator, read-out: IC50 (µM), β5i
[2] = 30 min pre-incubation, SDS activator
[3] = 0 min pre-incubation (IC50 shift), read-out: IC50 (µM), β5i, without pre-incubation

| SMILES | remaining activity at 100 µM (hMAO-A) [%] | IC50 (β5i subunit of human iCP; [1]) [µM] | IC50 (β1i subunit of human iCP) [µM] | β2i (RA [%]) (β2i subunit of human iCP; Table 6) | IC50 (µM), β5i (β5i subunit of human iCP; [2]) | Group efficiency (GE) (β5i subunit of human iCP) | remaining activity at 10 µM (β1i subunit of human iCP) [%] | β2i (RA [%]) (β2i subunit of human iCP; Table 3) | IC50 (β5i subunit of human iCP; [3]) [µM] | IC50 (β5i subunit of human iCP; IC50 (µM), β5i, 60-min pre-incubation, 60 min pre-incubation (IC50 shift)) [µM] |
| --- | --- | --- | --- | --- | --- | --- | --- | --- | --- | --- |
| CC(C)C[C@H](NC(=O)Cc1ccc2oc(C#N)nc2c1)B(O)O [Compound 40] | 36 | 2.4 ± 1 | 2.1 ± 0.1 | NA (NA, Not active (RA above 95%)) |  |  |  |  |  |  |
| N#Cc1nc2cc(O)ccc2o1 [Compound 11] | 26 | 4.2 ± 2.5 |  |  | single digit micromolar | 1.30 | > 90 | NA (NA, Not active (RA above 90%)) |  |  |
| CC(C)C[C@H](NC(=O)CCCn1c(C#N)nc2ccccc21)B1O[C@@H]2C[C@@H]3C[C@@H](C3(C)C)[C@]2(C)O1 [Compound 31] | 24 | 5.7 ± 0.9 | 6 ± 3.2 | NA (NA, Not active (RA above 95%)) |  |  |  |  |  |  |
| CC(=O)Oc1cccc2oc(C#N)nc12 [Compound 14] | 34 | 19 ± 9 |  |  | single digit micromolar | 0.16 | > 90 | NA (NA, Not active (RA above 90%)) |  |  |
| CC(C)C[C@H](NC(=O)CCn1c(C#N)nc2ccccc21)B1O[C@@H]2C[C@@H]3C[C@@H](C3(C)C)[C@]2(C)O1 [Compound 30] | > 50 | 0.6 | 1.2 ± 0.1 | NA (NA, Not active (RA above 95%)) |  |  |  |  | 1.5 ± 0.3 |  |
| CC(C)C[C@H](NC(=O)Cc1ccc2oc(C#N)nc2c1)B1O[C@@H]2C[C@@H]3C[C@@H](C3(C)C)[C@]2(C)O1 [Compound 39] | 42 | 3.1 ± 0.3 | 1.3 | NA (NA, Not active (RA above 95%)) |  |  |  |  | 3.2 ± 0.4 |  |
| N#Cc1nc2c(O)cccc2o1 [Compound 10] | 38 ± 2 | 3.6 ± 2.8 |  |  | single digit micromolar | 1.36 | > 90 | NA (NA, Not active (RA above 90%)) | 10 ± 1 | 0.5 ± 0.07 |
| CC(C)C[C@H](NC(=O)CCCn1c(C#N)nc2ccccc21)B(O)O [Compound 35] | > 50 | 7.9 ± 0.5 | 9.4 ± 1.9 | NA (NA, Not active (RA above 95%)) |  |  |  |  |  |  |
| CC(C)C[C@H](NC(=O)CCn1c(C#N)nc2ccccc21)B(O)O [Compound 34] | > 50 | 2.2 ± 0.6 | 2.8 ± 0.5 | NA (NA, Not active (RA above 95%)) |  |  |  |  | 5.1 |  |
| CC(C)C[C@H](NC(=O)CCn1c(C#N)nc2cccc(Cl)c21)B1O[C@@H]2C[C@@H]3C[C@@H](C3(C)C)[C@]2(C)O1 [Compound 38] | 24 ± 1 | 0.6 ± 0.1 | 1.9 | NA (NA, Not active (RA above 95%)) |  |  |  |  | 6.4 ± 0.7 |  |
| CC(=O)Oc1ccc2oc(C#N)nc2c1 [Compound 15] | 16 | 7.4 ± 1.7 |  |  |  | 0.26 | > 90 | NA (NA, Not active (RA above 90%)) |  |  |
| N#Cc1nc2cccc(O)c2o1 [Compound 13] | 48 ± 1 | 2.1 ± 1.2 |  |  | single digit micromolar | 1.60 | > 90 | 83% |  |  |
| COc1cccc2oc(C#N)nc12 [Compound 6] | 27 | 11 ± 7 | 78 |  |  | 0.44 |  | NA (NA, Not active (RA above 90%)) |  |  |
| C=Cc1nc(CC(=O)N[C@@H](CC(C)C)B2O[C@@H]3C[C@@H]4C[C@@H](C4(C)C)[C@]3(C)O2)cs1 [Compound 28] | 42 | 1.4 | 2.2 ± 0.1 | NA (NA, Not active (RA above 95%)) |  |  |  |  |  |  |
